# Test results taken from the supplement of paper PMC6965134.
# ± gives the standard deviation of the averaged measurements.
# Assay: TIMS collisional cross section (CCS, N2) of the lipid ion; higher = larger ion cross section
# Details: ionization mode: positive, one isomer drawn
TIMS collisional cross section (sample type: Liver),TIMS collisional cross section (sample type: HeLa),TIMS collisional cross section (sample type: plasma),Compound
283.3 Å²,–,–,CCCCC/C=C\C/C=C\CCCCCCCCCC(=O)O[C@H](COC(=O)CCCCCCC/C=C\CCCCCCCC)COP(=O)(O)OCCN [PE 18:1@_20:2] (ion (formula + adduct): [C43H80NO8P+H] 1+)
–,279 Å²,–,CCCCCCCC/C=C\CCCCCCCC(=O)OC[C@H](COP(=O)(O)OCCN)OC(=O)CCCCCCCCCCCCCCCC [PE 18:1_17:0@] (ion (formula + adduct): [C40H78NO8P+H] 1+)
–,279.2 ± 0.71 Å²,–,CCCCCCCC/C=C/CCCCCCCC(=O)OC[C@H](COP(=O)(O)OCCN)OC(=O)CCCCCCC/C=C/CCCCCCCC [PE 18:1_18:1] (ion (formula + adduct): [C41H78NO8P+H] 1+)
–,279.7 Å²,280.6 Å²,CCCCCCCC/C=C/CCCCCCCC(=O)OC[C@H](COP(=O)(O)OCCN)OC(=O)CCCCCCC/C=C/CCCCCCCC [PE 18:1_18:1] (ion (formula + adduct): [C41H78NO8P+Na] 1+)
290.8 Å²,–,–,CCCCCCCC/C=C\CCCCCCCC(=O)OC[C@H](COP(=O)(O)OCCN(C)C)OC(=O)CCCCCCC/C=C\CCCCCCCC [PE 18:1_18:1] (ion (formula + adduct): [C43H82NO8P+Na] 1+)
–,277.9 Å²,275.8 Å²,CCCCC/C=C\C/C=C\CCCCCCCC(=O)O[C@H](COC(=O)CCCCCCC/C=C\CCCCCCCC)COP(=O)(O)OCCN [PE 18:1_18:2@] (ion (formula + adduct): [C41H76NO8P+H] 1+)
276.1 Å²,275.7 Å²,–,CCCCC/C=C\C/C=C\CCCCCCCC(=O)O[C@H](COC(=O)CCCCCCC/C=C\CCCCCCCC)COP(=O)(O)OCCN [PE 18:1_18:2] (ion (formula + adduct): [C41H76NO8P+H] 1+)
277.2 Å²,276 Å²,–,CCCCC/C=C\C/C=C\CCCCCCCC(=O)O[C@H](COC(=O)CCCCCCC/C=C\CCCCCCCC)COP(=O)(O)OCCN [PE 18:1_18:2] (ion (formula + adduct): [C41H76NO8P+Na] 1+)
285.5 Å²,–,–,CCCCCCCC/C=C\CCCCCCCCCC(=O)O[C@H](COC(=O)CCCCCCC/C=C\CCCCCCCC)COP(=O)(O)OCCN [PE 18:1_20:1@] (ion (formula + adduct): [C43H82NO8P+H] 1+)
–,292.4 Å²,–,CCCCCCCC/C=C\CCCCCCCC(=O)OC[C@H](COP(=O)(O)OCCN)OC(=O)CCCCCCCCC/C=C\CCCCCCCCCC [PE 18:1_22:1] (ion (formula + adduct): [C45H86NO8P+H] 1+)
291.5 Å²,–,–,CCCCC/C=C\C/C=C\CCCCCCCCCCCC(=O)O[C@H](COC(=O)CCCCCCC/C=C\CCCCCCCC)COP(=O)(O)OCCN [PE 18:1_22:2@] (ion (formula + adduct): [C45H84NO8P+H] 1+)
–,270 Å²,–,CCCCC/C=C\C/C=C\CCCCCCCC(=O)OC[C@H](COP(=O)(O)OCCN)OC(=O)CCCCCCC/C=C\CCCCCC [PE 18:2@_16:1] (ion (formula + adduct): [C39H72NO8P+H] 1+)
277.2 Å²,–,–,CC/C=C\C/C=C\C/C=C\C/C=C\C/C=C\CCCC(=O)O[C@H](COC(=O)CCCCCCC/C=C\C/C=C\CCCCC)COP(=O)(O)OCCN [PE 18:2@_20:5] (ion (formula + adduct): [C43H72NO8P+H] 1+)
268.7 Å²,–,–,CCCCC/C=C\C/C=C\CCCCCCCC(=O)OC[C@H](COP(=O)(O)OCCN)OC(=O)CCCCCCC/C=C\CCCCCC [PE 18:2_16:1] (ion (formula + adduct): [C39H72NO8P+H] 1+)
273.1 Å²,–,–,CCCCC/C=C\C/C=C\CCCCCCCC(=O)OC[C@H](COP(=O)(O)OCCN)OC(=O)CCCCCCC/C=C\C/C=C\CCCCC [PE 18:2_18:2] (ion (formula + adduct): [C41H74NO8P+H] 1+)
270.2 Å²,–,–,CCCCC/C=C\C/C=C\C/C=C\CCCCC(=O)O[C@H](COC(=O)CCCCCCC/C=C\C/C=C\CCCCC)COP(=O)(O)OCCN [PE 18:2_18:3] (ion (formula + adduct): [C41H72NO8P+H] 1+)
284.2 Å²,–,–,CCCCC/C=C\C/C=C\CCCCCCCC(=O)OC[C@H](COP(=O)(O)OCCN)OC(=O)CCCCCCCCC/C=C\CCCCCCCC [PE 18:2_20:1] (ion (formula + adduct): [C43H80NO8P+Na] 1+)
273.7 Å²,273.8 Å²,–,CCCCC/C=C\C/C=C\C/C=C\C/C=C\CCCC(=O)O[C@H](COC(=O)CCCC/C=C\C/C=C\C/C=C\CCCCC)COP(=O)(O)OCCN [PE 18:3_20:4@] (ion (formula + adduct): [C43H72NO8P+H] 1+)
276.7 Å²,–,–,CC/C=C\C/C=C\C/C=C\C/C=C\C/C=C\C/C=C\CCC(=O)O[C@H](COC(=O)CCCC/C=C\C/C=C\C/C=C\CCCCC)COP(=O)(O)OCCN [PE 18:3_22:6] (ion (formula + adduct): [C45H72NO8P+H] 1+)
–,287.3 Å²,–,CCCCC/C=C\C/C=C\C/C=C\C/C=C\CCCC(=O)O[C@H](COC(=O)CCCCCCCCCCCCCCCCCC)COP(=O)(O)OCCN [PE 19:0_20:4@] (ion (formula + adduct): [C44H80NO8P+H] 1+)
286.3 Å²,–,–,CCCCC/C=C\C/C=C\CCCCCCCC(=O)O[C@H](COC(=O)CCCCCCCCCCCCCCCCCCC)COP(=O)(O)OCCN [PE 20:0@_18:2] (ion (formula + adduct): [C43H82NO8P+H] 1+)
287.2 Å²,–,–,CCCCC/C=C\C/C=C\C/C=C\C/C=C\CCCC(=O)O[C@H](COC(=O)CCCCCCCCC/C=C\CCCCCCCC)COP(=O)(O)OCCN [PE 20:1_20:4] (ion (formula + adduct): [C45H80NO8P+H] 1+)
–,279.1 Å²,–,CCCCC/C=C\C/C=C\C/C=C\CCCCCCC(=O)OC[C@H](COP(=O)(O)OCCN)OC(=O)CCCCCCCCCCCCCCC [PE 20:3@_16:0] (ion (formula + adduct): [C41H76NO8P+H] 1+)
280.9 Å²,–,–,CCCCC/C=C\C/C=C\C/C=C\C/C=C\CCCC(=O)O[C@H](COC(=O)CCCCCC/C=C\C/C=C\C/C=C\CCCCC)COP(=O)(O)OCCN [PE 20:3_20:4@] (ion (formula + adduct): [C45H76NO8P+H] 1+)
–,270.2 Å²,–,CCCCC/C=C\C/C=C\C/C=C\C/C=C\CCCC(=O)OC[C@H](COP(=O)(O)OCCN)OC(=O)CCCCCCCCCCCCC [PE 20:4@_14:0] (ion (formula + adduct): [C39H70NO8P+H] 1+)
284.4 Å²,284.8 Å²,–,CC/C=C\C/C=C\C/C=C\C/C=C\C/C=C\C/C=C\CCC(=O)O[C@H](COC(=O)CCC/C=C\C/C=C\C/C=C\C/C=C\CCCCC)COP(=O)(O)OCCN [PE 20:4@_22:6] (ion (formula + adduct): [C47H74NO8P+H] 1+)
272.6 Å²,272.4 Å²,–,CCCCC/C=C\C/C=C\C/C=C\C/C=C\CCCC(=O)OC[C@H](COP(=O)(O)OCCN)OC(=O)CCCCCCC/C=C\CCCCCC [PE 20:4_16:1] (ion (formula + adduct): [C41H72NO8P+H] 1+)
